Assay results as given in patent US11773071B2, “Benzothiazepine compounds and their use as bile acid modulators” (Albireo AB, priority 2019, dated 2023).

What was measured:
Human LBAT = molecular target: T1, Human LBAT (Homo sapiens, UniProt Q14973); test: LBAT (h/m) assay, human LBAT-overexpressing cells, 3H-taurocholic acid uptake; type: cell-based; settings: 0.3 μM 3H-taurocholic acid and 7.5 μM cold taurocholic acid, 20 minutes, read-out: hLBAT IC50
T1 construct: expressed in transfected cells; Geneticin-selected
T1 sequence (Q14973 1-349): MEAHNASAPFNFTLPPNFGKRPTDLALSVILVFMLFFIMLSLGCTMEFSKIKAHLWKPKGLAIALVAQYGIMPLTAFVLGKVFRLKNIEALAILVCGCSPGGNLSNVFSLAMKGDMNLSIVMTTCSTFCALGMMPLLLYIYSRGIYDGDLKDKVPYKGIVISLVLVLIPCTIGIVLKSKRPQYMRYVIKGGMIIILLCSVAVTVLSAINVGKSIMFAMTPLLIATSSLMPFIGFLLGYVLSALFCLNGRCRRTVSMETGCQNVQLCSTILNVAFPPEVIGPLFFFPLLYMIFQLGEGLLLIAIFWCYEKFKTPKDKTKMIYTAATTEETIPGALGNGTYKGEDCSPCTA
Method: LBAT (h/m) Assay Protocol
20,000 cells (Human or Mouse LBAT-overexpressing cells) were seeded in 96-wells plate (Corning CLS3809) in 100 μL MEM-alpha medium (Gibco 12571-063) supplemented with 10% FBS (Gibco 10438026) containing Geneticin (Gibco 10131-027) (1 mg/mL) and incubated at 37° C. in 5% CO2 for 24 hours. After incubation, media was decanted from the wells and cells were washed two times with 300 μL of basal MEM-alpha medium (FBS-free). After decanting basal MEM-alpha medium each time, plates were tapped against paper towel to ensure maximum removal of residual media.
For human LBAT, incubation mix was prepared by adding test inhibitor dilutions (3-fold serial dilution in DMSO (Sigma D2650), 10 points) in MEM-alpha (without FBS) containing 0.3 μM 3H-taurocholic acid (ARC ART-1368) and 7.5 μM cold taurocholic acid (Sigma T4009) (maintaining 0.2% final DMSO concentration). For mouse LBAT, incubation mix was prepared by adding test inhibitor dilutions (3-fold serial dilution in DMSO, 10 points) in MEM-alpha (without FBS) containing 0.3 μM 3H-taurocholic acid and 25 μM cold taurocholic acid maintaining 0.2% final DMSO concentration). 50 μL of incubation mix containing test inhibitors was then added to the wells (in duplicate) and the plates were incubated for 20 minutes in a CO2 incubator at 37° C. After incubation, the reaction was stopped by keeping the plates on ice water mix for 2-3 minutes and then the incubation mix was aspirated completely from the wells. The wells were washed two times with 250 μL of chilled unlabelled 1 mM taurocholic acid dissolved in HEPES (Gibco 15630080)-buffered (10 mM) HBSS (Gibco 14175079) (pH 7.4). The plates were tapped against a paper towel after every wash to ensure maximum removal of blocking buffer. 100 μL of MicroScint-20 (PerkinElmer 6013621) was added to the wells and kept overnight at room temperature before reading the plates in TopCount NXT™ Microplate Scintillation and Luminescence Counter from PerkinElmer under 3H Test protocol (set at 120 seconds reading time per well, with normal plate orientation).
(§1) Preparation of Test Compound Dilutions
(§2) All test compounds were provided in powder form at room temperature. 10 mM DMSO stocks of the test compounds were prepared, aliquoted and stored at −20° C. From the 10 mM DMSO stock of the compounds, a 3-fold serial dilution in DMSO was prepared to get a total of 10 dilutions of the test compounds. 0.5 μL of this dilution in DMSO was added to 250 μL of FBS-free basal media containing 3H-taurocholic acid and cold taurocholic acid to prepare the incubation mixture.

Human IBAT = molecular target: T2, Human IBAT (Homo sapiens, UniProt Q12908); test: IBAT (h/m) assay, human IBAT-overexpressing cells, 3H-taurocholic acid uptake; type: cell-based; settings: 0.25 μM 3H-taurocholic acid and 5 μM cold taurocholic acid, 20 minutes, read-out: hIBAT IC50
T2 construct: expressed in transfected cells; Puromycin-selected
T2 sequence (Q12908 1-348): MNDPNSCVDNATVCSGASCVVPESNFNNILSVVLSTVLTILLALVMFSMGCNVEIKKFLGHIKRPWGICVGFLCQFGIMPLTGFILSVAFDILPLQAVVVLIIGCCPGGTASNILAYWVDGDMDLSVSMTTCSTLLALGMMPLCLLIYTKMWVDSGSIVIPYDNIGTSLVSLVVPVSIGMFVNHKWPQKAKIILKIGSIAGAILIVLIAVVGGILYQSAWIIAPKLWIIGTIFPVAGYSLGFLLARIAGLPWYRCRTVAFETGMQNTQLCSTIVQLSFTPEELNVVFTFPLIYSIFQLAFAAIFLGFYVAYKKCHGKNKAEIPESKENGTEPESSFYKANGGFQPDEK
Method: IBAT (h/m) Assay Protocol
10,000 cells (Human or Mouse IBAT-overexpressing cells) were seeded in 96-wells plate (Corning CLS3809) in 200 μL MEM-alpha medium (Gibco 12571-063) supplemented with 10% FBS (Gibco 10438026) containing Puromycin (Gibco A1113803) (10 μg/mL) and incubated at 37° C. in 5% CO2 for 48 hours. After incubation, media was decanted from the wells and cells were washed two times with 300 μL of basal MEM-alpha medium (FBS-free). After decanting basal MEM-alpha medium each time, plates were tapped against paper towel to ensure maximum removal of residual media. Test inhibitor dilutions (highest test concentration being 10 μM, 3-fold serial dilution, 10 points) prepared in DMSO (Sigma D2650) were added in incubation mix (maintaining 0.2% final DMSO concentration) containing 0.25 μM 3H-taurocholic acid (ARC ART-1368) and 5 μM of cold taurocholic acid (Sigma T4009). 50 μL of incubation mix containing test inhibitors was then added to the wells (in duplicate) and the plates were incubated for 20 minutes in a CO2 incubator at 37° C. After incubation, the reaction was stopped by keeping the plates on ice water mix for 2-3 minutes and then the incubation mix was aspirated completely from the wells. The wells were washed two times with 250 μL of chilled unlabelled 1 mM taurocholic acid dissolved in HEPES (Gibco 15630080)-buffered (10 mM) HBSS (Gibco 14175079) (pH 7.4). The plates were tapped against a paper towel after every wash to ensure maximum removal of blocking buffer.
100 μL of MicroScint-20 (PerkinElmer 6013621) was added to the wells and kept overnight at room temperature before reading the plates in TopCount NXT™ Microplate Scintillation and Luminescence Counter from PerkinElmer under 3H Test protocol (set at 120 seconds reading time per well).
as §1, §2

| Compound | IC50 (Human LBAT) [nM] | IC50 (Human IBAT) [nM] |
| --- | --- | --- |
| CCCCC1(CC)CN(c2ccccc2)c2cc(OC)c(OCCC(=O)O)cc2S(=O)(=O)C1 (single isomer, unassigned) [44, enantiomer 1] | > 20000 | 46 |
| CCCCC1(CC)CN(c2ccc(F)cc2)c2cc(SC)c(OCC(O)C(=O)O)cc2S(=O)(=O)C1 (single isomer, unassigned) [42, diastereomer 4] | 689 | 1 |
| CCCCC1(CC)CN(c2ccccc2)c2cc(SC)c(OCC(N)C(=O)O)cc2S(=O)(=O)C1 (single isomer, unassigned) [36, diastereomer 2] |  | 5 |
| CCCCC1(CC)CN(c2ccccc2)c2cc(SC)c(OCC(O)C(=O)O)cc2S(=O)(=O)C1 (single isomer, unassigned) [40, diastereomer 4] | 389 | 10 |
| CCCCC1(CC)CN(c2ccccc2)c2cc(SC)c(OCC(C)(F)C(=O)O)cc2S(=O)(=O)C1 (single isomer, unassigned) [35, diastereomer 2] | 138 | 13 |
| CCCCC1(C)CN(c2ccccc2)c2cc(SC)c(OCC(C)(O)C(=O)O)cc2S(=O)(=O)C1 (single isomer, unassigned) [33, diastereomer 2] | 1410 | 45 |
| CCCCC1(C)CN(c2ccccc2)c2cc(N(C)C)c(OCCC(=O)O)cc2S(=O)(=O)C1 (single isomer, unassigned) [29, enantiomer 2] | 3310 | 57 |
| CCCCC1(CC)CN(c2ccccc2)c2cc(SC)c(OCC(O)C(=O)O)cc2S(=O)(=O)C1 (single isomer, unassigned) [40, diastereomer 2] | 513 | 24 |
| CCCCC1(CC)CN(c2ccccc2)c2cc(SC)c(OCC(N)C(=O)O)cc2S(=O)(=O)C1 (single isomer, unassigned) [36, diastereomer 1] |  | 76 |
| CCCCC1(C)CN(c2ccccc2)c2cc(SC)c(OCC(C)(O)C(=O)O)cc2S(=O)(=O)C1 (single isomer, unassigned) [33, diastereomer 4] | 575 |  |

Now from value to molecule:

| IC50 (Human LBAT) [nM] | IC50 (Human IBAT) [nM] | Compound |
| --- | --- | --- |
| > 6670 | 11 | CCCCC1(CCCC)CN(c2ccccc2)c2cc(OC)c(OCCC(=O)O)cc2S(=O)(=O)C1 [Example 45, 3-((3,3-Dibutyl-7-methoxy-1,1-dioxido-5-phenyl-2,3,4,5-tetrahydro-1,5-benzothiazepin-8-yl)oxy)propanoic acid] |
|  | 62 | CCCC1(CC)CN(c2ccccc2)c2cc(SC)c(OCCC(=O)O)cc2S(=O)(=O)C1 (stereo not drawn) [Example 27, 3-((3-ethyl-7-(methylthio)-1,1-dioxido-5-phenyl-3-propyl-2,3,4,5-tetrahydro-1,5-benzothiazepin-8-yl)oxy)propanoic acid] |
| 359 | 10 | CCCCC1(C)CN(c2ccccc2)c2cc(SC)c(OCC(O)C(=O)O)cc2S(=O)(=O)C1 (stereo not drawn) [Example 31, 3-((3-butyl-3-methyl-7-(methylthio)-1,1-dioxido-5-phenyl-2,3,4,5-tetrahydro-1,5-benzothiazepin-8-yl)oxy)-2-hydroxypropanoic acid] |
| 1190 | 56 | CCCCC1(CC)CN(c2ccccc2)c2cc(SC)c(OCC(C)(O)C(=O)O)cc2S(=O)(=O)C1 (single isomer, unassigned) [48, diastereomer 1] |
| 922 | 18 | CCCCC1(CCCC)CN(c2ccc(F)c(F)c2)c2cc(SC)c(OCCC(=O)O)cc2S(=O)(=O)C1 [Example 25, 3-((3,3-dibutyl-5-(3,4-difluorophenyl)-7-(methylthio)-1,1-dioxido-2,3,4,5-tetrahydro-1,5-benzothiazepin-8-yl)oxy)propanoic acid] |
| 182 | 334 | CCCCC1(C)CN(c2ccccc2)c2cc(SC)c(OCCC(=O)O)cc2S(=O)(=O)C1 (single isomer, unassigned) [Example 23, 3-((3-butyl-3-methyl-7-(methylthio)-1,1-dioxido-5-phenyl-2,3,4,5-tetrahydro-1,5-benzothiazepin-8-yl)oxy)propanoic acid] |
| 613 | 4 | CCCCC1(CC)CN(c2ccccc2)c2cc(SC)c(OCC(O)C(=O)O)cc2S(=O)(=O)C1 (stereo not drawn) [Example 39, 3-((3-butyl-3-ethyl-7-(methylthio)-1,1-dioxido-5-phenyl-2,3,4,5-tetrahydro-1,5-benzothiazepin-8-yl)oxy)-2-hydroxypropanoic acid] |
| 1540 | 10 | CCCCC1(CCCC)CN(c2ccc(F)cc2)c2cc(SC)c(OCCC(=O)O)cc2S(=O)(=O)C1 [Example 26, 3-((3,3-dibutyl-5-(4-fluorophenyl)-7-(methylthio)-1,1-dioxido-2,3,4,5-tetrahydro-1,5-benzothiazepin-8-yl)oxy)propanoic acid] |
|  | 5 | CCCCC1(C)CN(c2ccc(F)cc2)c2cc(SC)c(OCC(O)C(=O)O)cc2S(=O)(=O)C1 (stereo not drawn) [Example 51, 3-((3-Butyl-5-(4-fluorophenyl)-3-methyl-7-(methylthio)-1,1-dioxido-2,3,4,5-tetrahydro-1,5-benzothiazepin-8-yl)oxy)-2-hydroxypropanoic acid] |
|  | 52 | CCCCC1(CC)CN(c2ccccc2)c2cc(N(C)C)c(OCCC(=O)O)cc2S(=O)(=O)C1 (single isomer, unassigned) [Example 18, 3-((3-butyl-7-(dimethylamino)-3-ethyl-1,1-dioxido-5-phenyl-2,3,4,5-tetrahydro-1,5-benzothiazepin-8-yl)oxy)propanoic acid] |
|  | 45 | CCCCC1(CC)CN(c2ccccc2)c2cc(SC)c(OCC(N)C(=O)O)cc2S(=O)(=O)C1 (stereo not drawn) [Example 28, O-(3-butyl-3-ethyl-7-(methylthio)-1,1-dioxido-5-phenyl-2,3,4,5-tetrahydro-1,5-benzothiazepin-8-yl)serine] |
|  | 10 | CCCCC1(C)CN(c2ccc(F)cc2)c2cc(SC)c(OCCC(=O)O)cc2S(=O)(=O)C1 (racemic) [Example 49, 3-((3-Butyl-5-(4-fluorophenyl)-3-methyl-7-(methylthio)-1,1-dioxido-2,3,4,5-tetrahydro-1,5-benzothiazepin-8-yl)oxy)propanoic acid] |
